Measurements published in patent publication EP0326134A1, “4-Amino-2,3-disubstituted-6,7-dihydro-5H-1-pyridine derivatives, process for their preparation and medicaments containing them” (NAUCHNO-ISSLEDOVATELSKY INSTITUT TEKHNOLOGII I BEZOPASNOSTI …, priority 1988, dated 1989).
Counter-ions that a name gives are not always drawn. Like-named read-outs stand apart in the source and are kept apart here.

Tests used:
Samenleiter der Ratte = experiment: Contractile activity of smooth muscle: rat vas deferens; conditions: Rattus norvegicus, Samenleiter der Ratte, n = 9, read-out: Adrenalin 1.10^-6: Amplitude, % bezogen auf d.Kontrolle; for activity at 100 µM: Konzentration 1.10^-4 Mol
Description: (§1) In Versuchen an glattmpskulären Organen (Uterus, Samenleiter der Ratte und Krummdarm des Meerschweinchens) wurden die Wirkung der erfindungsgemäßen Verbindungen auf die kontraktile Aktivität der glatten Muskeln und ihre Reaktionen auf den Einfluß von Acetylcholin, Serotonin, Adrenalin und KCI als Agonisten untersucht. Mit Hilfe eines Schreibers wurden die Amplitude und die Dauer der Kontraktion der glatten Muskeln unter Verwendung eines Geräts vom Typ Mechanstron-untersucht.

[1] = system: Nerven-Muskel-Präparat von Mäusen (n.peroneus-m.extensor digitorum longus); experiment: Neuromuscular transmission in isolated nerve-muscle preparation (EPP, minEPP); conditions: for Stimulierung der Nerven-Muskelübertragung, in % der Amplitude: EPP: EPP = Endplattenpotential
Description: Der Einfluß der Stoffe auf die Nerven-Muskei-Übertragung wurde am isolierten Nerven-Muskel-Präparat von Mäusen (n.peroneus-m.extensor digitorum longus) (s. Bhattacharyya B. et al. "Neuromuscular blocking action of two hemicholinium-3 analogs" Europ. J. Pharmac. 146, 155-165 /1988/) untersucht, das von Lilly-Lösung perfundiert wurde, durch die man ein Gemisch von 02 und C02 leitete. […] Das Endplattenpotential (EPP) und das Endplattenminiaturpotential (minEPP) wurden mit Hilfe eines Magnetografen aufgezeichnet und danach mit dem Computer ausgewertet. Ermittelt wurden die Frequenz (f), die Amplitude (A) und die Dauer (t) der minEPP und der EPP (s. Tabelle 2).

Uterus der Ratte = experiment: Contractile activity of smooth muscle: rat uterus; conditions: n = 9; for activity at 100 µM: Konzentration 1.10^-4 Mol, read-out: Serotonin 1.10^-6 (Mol): Amplitude, % bezogen auf die Kontrolle
Description: as §1

[2] = biological target: T1, Acetylcholinesterase menschlicher Erythrozyten (Homo sapiens, UniProt P22303); experiment: Acetylcholinesterase inhibition, spectrophotometric; assay type: biochemical; conditions: Acetylcholinesteraseinhibierung bei menschlichen Erythrozyten IK, (Mol), human erythrocyte enzyme
T1 construct: Acetylcholin-esteraseinhi-bierung bei menschlichen Erythrozyten; from tissue; host or cells: human erythrocytes
T1 sequence (P22303 other isoform, or with tags, fused parts or gaps): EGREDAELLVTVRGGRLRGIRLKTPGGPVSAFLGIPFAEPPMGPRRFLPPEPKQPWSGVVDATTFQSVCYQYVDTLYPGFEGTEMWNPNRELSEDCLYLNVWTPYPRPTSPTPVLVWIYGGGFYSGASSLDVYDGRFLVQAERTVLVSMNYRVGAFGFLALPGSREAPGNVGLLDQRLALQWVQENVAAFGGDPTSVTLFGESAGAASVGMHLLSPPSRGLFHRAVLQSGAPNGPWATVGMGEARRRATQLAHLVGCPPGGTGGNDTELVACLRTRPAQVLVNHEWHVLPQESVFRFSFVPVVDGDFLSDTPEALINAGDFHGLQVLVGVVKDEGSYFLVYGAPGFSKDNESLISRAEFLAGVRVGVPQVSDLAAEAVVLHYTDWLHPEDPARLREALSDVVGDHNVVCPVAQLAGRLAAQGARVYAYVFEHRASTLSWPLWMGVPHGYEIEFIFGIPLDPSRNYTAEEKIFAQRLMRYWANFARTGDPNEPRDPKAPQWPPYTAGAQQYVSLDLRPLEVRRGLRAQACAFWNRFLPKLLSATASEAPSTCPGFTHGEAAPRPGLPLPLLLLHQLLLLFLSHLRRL
Description: Untersucht wurden die Wirkmechanismen der erfindungsgemäßen Verbindungen: • 1. Die Wirkung auf Acetylcholinesterase menschlicher Erythrozyten auf spektrofotometrischem Wege. • 2.

[3] = system: K -Durchlässigkeit der Membrane des Ranvier-Schnürringes; experiment: K+ permeability of the node of Ranvier membrane, voltage clamp; parameters: species or system Frosches; conditions: node of Ranvier, frog sciatic nerve fibres, voltage clamp; concentration giving 50 % block of ion permeability; read-out: Blockierung der K^+-Durchlässigkeit der Membrane Ic50 (Mol)
Description: (§2) Untersucht wurden die Wirkmechanismen der erfindungsgemäßen Verbindungen: • 1. Die Wirkung auf Acetylcholinesterase menschlicher Erythrozyten auf spektrofotometrischem Wege. • 2. Die Wirkung auf die K - und Na -Durchlässigkeit der Membrane des Ranvier-Schnürringes (s. Fox T.M. et al. "Modification of ionic membrane currrents of Ranvier nodes by UV-radiation under voltage clamp conditions", Experientia, 27, 1289-1290 /1971/ und Arhom P. et al. "Local anesthetics: effects on permeability properties of nodal membrane in myelynated nerve fibres from xenopus". Acta physiol. Scand. 91, 11-21 /1974/) der Nervenfasern des Hüftnervs des Frosches unter Anwendung der Methode der Messung der Membranspannung (Voltage-clampmethode) (s. Derksen H.E. "Axon membrane voltage fluctuations", Acta Physiol., Pharmacol Neer, 13, 373-466 /1965/).
(§3) Alle erfindungsgemäßen Verbindungen sind Blocker für die K^+-Durchlässigkeit der Membrane analog dem Amyridin. Die Salze der bicyclischen Basen blockieren jedoch stärker die Na -Durchlässigkeit der Membrane, was sich mit ihren sedativen und analgetischen Eigenschaften in Verbindung bringen läßt.

[4] = system: Na -Durchlässigkeit der Membrane des Ranvier-Schnürringes; experiment: Na+ permeability of the node of Ranvier membrane, voltage clamp; parameters: species or system Frosches; conditions: node of Ranvier, frog sciatic nerve fibres, voltage clamp; concentration giving 50 % block of ion permeability; read-out: Blockierung der Na^+-Durchlässigkeit der Membrane Ic50 (Mol)
Description: as §2, §3

[5] = Acute toxicity, single intraperitoneal injection, probit analysis (LD50); assay type: in vivo, Mäusen; conditions: mice, i.p.
Description: Ihre akute Toxizität wurde an Mäusen (einmalige intraperitoneale Injektion) nach der Methode der Probit-Analyse nach Zichtfield, Wilcoxon, t949 untersucht. In Tabelle 2 sind die Parameter der akuten Toxizität (LDso) angegeben, die eine mäßige Toxizität der erfindungsgemäßen Verbindungen belegen.

[6] = system: durch Skopolamin hervorgerufene Amnesie; experiment: Dark avoidance assay (passive avoidance), scopolamine-induced amnesia; assay type: in vivo, Mäusen; conditions: for antiamnestische Wirkung: in words, compared with Amyridin; for Einfluß auf das Gedächtnis: Zahl der Tiere in %, bei denen die Skopolaminwirkung aufgehoben wurde: mice, compound s.c. 5 min before learning, Skopolamin i.p. 30 min before
Protocol: Die Mäuse wurden dabei in den hellen Abschnitt der Kammer gegeben, wonach die Latenzzeit für den Übertritt in die dunkle Kammer, in der die Tiere einem Stromschlag von 0,5 mA ausgesetzt waren, registriert wurde. Danach erhöhte sich die Latenzzeit für den Übertritt in den dunklen Abschnitt und verringerte sich die Aufenthaltsdauer. 30 Minuten vor dem Versuch wurden den Mäusen i.p. […] Gedächtnisstörungen hervorrufendes Skopolamin als Cholinblocker injiziert. Die erfindungsgemäßen Verbindungen wurden s.c. 5 Minuten vor dem Lernvorgang injiziert. Das Skopolamin verkürzt die Latenzzeit für den Übertritt in die dunkle Kammer, die erfindungsgemäßen Verbindungen stellen jedoch die Latenzzeitwerte wie bei der Kontrollgruppe wieder her oder bedingen ein geringfügiges Überschreiten dieser Werte (siehe Tabelle 2). Gleichzeitig wird die Aufenthaltsdauer der Tiere im dunklen Abschnitt der Kammer auf 36 bis 45 Hundertstel des Ausgangswerts verringert.

[7] = Side effects and CNS/behaviour: tremor (TD50), sedative and m-cholinomimetic effects; assay type: in vivo; conditions: for selectivity ratio / TD50: in vivo; for selectivity ratio / Verhältnis TD50 zu ED50: ED50 = dose blocking the effect of Skopolamin in 50 % of the animals (passive avoidance, mice); for selectivity ratio: read-out: Verhältnis TD50 zu ED50; for TD50 / TD50 (Tremor): toxic dose causing tremor in 50 % of the animals
Description: Von Interesse ist der Einfluß der erfindungsgemäßen Verbindungen auf das ZNS und das Verhalten der Tiere.

[8] = Rattus norvegicus, Uterus der Ratte
[9] = mouse, in vivo, ip, read-out: LD50

Compound	activity at 100 µM (Samenleiter der Ratte)	Stimulierung der Nerven-Muskelübertragung, in % der Amplitude: EPP [1]	Stimulierung der Nerven-Muskelübertragung, in % der Amplitude: minEPP [1]	activity at 100 µM (Uterus der Ratte; [8])	Ki [2]	IC50 [3]	IC50 [4]	LD50 [5, 9]	antiamnestische Wirkung [6]	Einfluß auf das Gedächtnis: Zahl der Tiere in %, bei denen die Skopolaminwirkung aufgehoben wurde [6]	selectivity ratio [7]	TD50 [7]	LD50 [5]	Verhältnis TD50 zu ED50 [7]	TD50 (Tremor) [7]	activity at 10 µM (Samenleiter der Ratte; Konzentration 1.10^-5 Mol)	activity at 10 µM (Uterus der Ratte; Rattus norvegicus, Uterus der Ratte (as head prints), Konzentration 1.10^-5 Mol, ditto mark -"- repeats unverändert, read-out: Acetylcholin 1.10^-6 (Mol): Amplidude, % bezogen auf d. Kontrolle)	Acetylcholin 1.10^-6 (Mol): Dauer, Min. (Uterus der Ratte; Uterus der Ratte (as head prints), Konzentration 1.10^-5 Mol)	Serotonin 1.10^-6 (Mol): Dauer, Min. (Uterus der Ratte; Uterus der Ratte, Konzentration 1.10^-5 Mol)
CNc1c(C)c(C)nc2c1CCC2 [Verbindung 19, 2,3-Dimethy)-4-methy)amino-6,7-dihydro-5H-1-pyrindinhydrat]	115%	28%	56%	120%	6.7 µM	1800 µM	2500 µM	16 mg/kg	antiamnestische Wirkung, welche die von Amyridin etwas übertraf	70%	4	12 mg/kg	–	–	–	–	–	–	–
CCNc1c(C)c(C)nc2c1CCC2 [Verbindung 20, 2,3-Dimethyl-4-ethylamino-6,7-dihydro-5H-1-pyrindin]	120%	30%	58%	125%	7 µM	2200 µM	2800 µM	18 mg/kg	antiamnestische Wirkung, welche die von Amyridin etwas übertraf	65%	3.8	10 mg/kg	–	–	–	–	–	–	–
CCc1c(C)nc2c(c1N)CCC2 [Verbindung 21, 2-Methyl-3-ethyl-4-amino-6,7-dihydro-5H-1-pyrindinhydrat]	115%	25%	58%	118%	7 µM	3500 µM	3200 µM	30 mg/kg	antiamnestische Wirkung, welche die von Amyridin etwas übertraf	68%	3.8	10 mg/kg	–	–	–	–	–	–	–
CCCc1c(C)nc2c(c1N)CCC2 [Verbindung 24]	120%	25%	54%	119%	7.5 µM	4000 µM	4200 µM	30 mg/kg	–	68%	3	10 mg/kg	–	–	–	–	–	–	–
CCc1nc2c(c(N)c1C)CCC2 [Verbindung 27, 2-Ethyl-3-methyl-4-amino-6,7-dihydro-5H-1-pyrindinhydrat]	126%	23%	45%	125%	3.8 µM	150 µM	380 µM	30 mg/kg	antiamnestische Wirkung, welche die von Amyridin etwas übertraf	60%	10	19 mg/kg	–	–	–	–	–	–	–
CCc1nc2c(c(N)c1C)CCC2 [Verbindung 29]	–	18%	40%	–	6 µM	200 µM	300 µM	–	–	70%	–	–	35 mg/kg	12	22 mg/kg	–	–	–	–
CCc1nc2c(c(N)c1C)CCC2 [Verbindung 30]	–	24%	45%	–	5.1 µM	280 µM	350 µM	–	–	75%	–	–	40 mg/kg	11	22 mg/kg	–	–	–	–
Cc1nc2c(c(N)c1-c1ccccc1)CCC2 [Verbindung 33]	128%	20%	42%	140%	48 µM	6500 µM	5500 µM	–	–	55%	–	–	25 mg/kg	2,4	15 mg/kg	–	–	–	–
Nc1c2c(nc3c1CCC3)CCC2 [Verbindung 36, 8-Amino-1,2,3,5,6,7-hexahydro-1-cyclopenta[b]pyrindin-hydrochlorid]	–	20%	60%	–	0.11 µM	420 µM	5200 µM	36 mg/kg	–	65%	7.5	15 mg/kg	–	–	–	160%	140%	–	–
Nc1c2c(nc3c1CCC3)CCC2 [Verbindung 37, 8-Amino-1,2,3,5,6,7-hexahydro-1-cyclopenta[b]pyrindinperchlorat]	–	30%	66%	–	0.15 µM	450 µM	4200 µM	–	–	68%	–	–	38 mg/kg	8,2	18 mg/kg	–	–	–	–
Nc1c2c(nc3c1CCC3)CCCCC2 [Verbindung 39]	–	25%	60%	–	0.56 µM	480 µM	5000 µM	–	–	72%	–	–	50 mg/kg	7,2	18 mg/kg	–	–	22±0.6 Min.	28±0.5 Min.
